From patent publication US9849104B2 (Gemphire Therapuetics Inc., priority 2015, dated 2017)

Biological target: T1, CYP2A6 (Homo sapiens, UniProt P11509)
T1 construct: Human livers, HLM141, HLM143, and HLM144 were selected from the University of Washington Human Liver Bank for this study; Microsomes were prepared; tissue University of Washington Human Liver Bank HLM141, HLM143, HLM144; host or cells: human liver microsomes
T1 sequence (P11509 1-494): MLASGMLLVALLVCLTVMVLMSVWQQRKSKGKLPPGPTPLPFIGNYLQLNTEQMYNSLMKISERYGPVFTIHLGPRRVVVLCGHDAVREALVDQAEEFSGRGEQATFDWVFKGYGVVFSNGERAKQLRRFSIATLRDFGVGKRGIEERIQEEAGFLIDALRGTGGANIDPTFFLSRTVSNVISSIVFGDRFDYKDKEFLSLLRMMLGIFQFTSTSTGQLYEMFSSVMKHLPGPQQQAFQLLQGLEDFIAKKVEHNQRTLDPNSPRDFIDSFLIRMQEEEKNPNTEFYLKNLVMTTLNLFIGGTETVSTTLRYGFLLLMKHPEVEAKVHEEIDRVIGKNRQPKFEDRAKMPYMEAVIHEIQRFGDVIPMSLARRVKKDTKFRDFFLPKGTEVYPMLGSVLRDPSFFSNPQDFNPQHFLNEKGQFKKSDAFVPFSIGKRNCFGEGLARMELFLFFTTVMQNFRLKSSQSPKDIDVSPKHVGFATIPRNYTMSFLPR
Assay: Inhibition of CYP2A6 (7-hydroxylation of coumarin) in human liver microsomes
Type: in vitro ADME
Details: probe coumarin (7-hydroxylation), 4 μM, read-out: inhibitory activity toward CYP2A6
Description: Human livers, HLM141, HLM143, and HLM144 were selected from the University of Washington Human Liver Bank for this study. […] The seven isoforms and the metabolic pathway of each of the probes used to monitor specific isoform activity are listed below.
CYP2A6: The 7-hydroxylation of coumarin (4 μM). The reaction is monitored by HPLC using florescence detection.

**Q.** How did the inhibition at 1500 µM turn out when `CC(C)(CCCCOCCCCC(C)(C)C(=O)O)C(=O)O` [Gemcabene, 6,6′-oxybis(2,2-dimethylhexanoic acid)] was run?
**A.** 10 to 20%
